The results in this text go back to patent publication US20090088419A1, “PYRIDYL ACETIC ACID COMPOUNDS” (TAKEDA PHARMACEUTICAL COMPANY LIMITED, priority 2005, published 2009).

Counter-ions that a name gives are not always drawn.

T1 sequence (P14740 37-767 limits assumed): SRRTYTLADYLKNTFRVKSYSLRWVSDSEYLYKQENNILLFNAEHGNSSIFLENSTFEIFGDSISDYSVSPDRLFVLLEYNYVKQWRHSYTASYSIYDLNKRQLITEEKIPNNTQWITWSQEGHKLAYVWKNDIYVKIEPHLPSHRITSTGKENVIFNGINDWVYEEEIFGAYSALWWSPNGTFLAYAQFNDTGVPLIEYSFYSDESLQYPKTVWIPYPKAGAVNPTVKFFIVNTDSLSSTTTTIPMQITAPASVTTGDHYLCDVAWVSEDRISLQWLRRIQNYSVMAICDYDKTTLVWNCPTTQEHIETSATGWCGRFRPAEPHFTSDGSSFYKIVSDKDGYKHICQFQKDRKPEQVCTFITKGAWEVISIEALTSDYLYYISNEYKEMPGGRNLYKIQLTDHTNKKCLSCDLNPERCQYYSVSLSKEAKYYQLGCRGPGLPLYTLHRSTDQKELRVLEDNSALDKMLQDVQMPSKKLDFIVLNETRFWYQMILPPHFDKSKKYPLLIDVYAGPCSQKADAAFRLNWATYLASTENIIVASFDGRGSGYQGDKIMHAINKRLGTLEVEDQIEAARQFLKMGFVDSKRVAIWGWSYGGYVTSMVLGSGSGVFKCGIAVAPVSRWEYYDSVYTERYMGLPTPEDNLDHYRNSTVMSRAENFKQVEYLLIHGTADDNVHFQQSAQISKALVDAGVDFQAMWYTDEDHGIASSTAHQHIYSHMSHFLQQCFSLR

The first experiment concerns the target T1, dipeptidyl peptidase IV (Rattus norvegicus, UniProt P14740).
T1 construct: from tissue; host or cells: SD rat blood plasma
Nature of the experiment: Determination of dipeptidyl peptidase IV inhibitory activity in rat plasma (Experimental Example 2). The experiment is classed as biochemical. The note with it: plasma of SD rat, same manner as Experimental Example 1; Table 6. As to the method: (§1) A dimethylformamide solution (1 μL) containing the test compound was added to a mixture of water (69 μL), 1 M Tris-hydrochloride buffer (10 μL, pH 7.5) and 1 mM aqueous Gly-Pro-p-NA solution (100 μL) to prepare a mixed solution. Plasma (20 μL) prepared from blood of SD rat according to a conventional method was added to the above-mentioned mixed solution and the enzyme reaction was started at 30° C. The absorbance after 0 hr. and 1 hr. was measured using a microplate reader at a wavelength of 405 nm and an increase (AODs) was determined. At the same time, an increase (AODc) in absorbance of the reaction mixture without the test compound, and an increase (AODb) in absorbance of the reaction mixture without the test compound and the enzyme were determined and the inhibition rate of dipeptidyl peptidase IV enzyme activity was calculated from the following formula:
(§2) {1−[(ΔODs−ΔODb)/(ΔODc−ΔODb)]}×100
(§3) Determination of Dipeptidyl Peptidase IV Inhibitory Activity in Rat Plasma
The compound `Cc1ccc(-c2c(CN)c(CC(C)C)nc(CC(C)C)c2CC(=O)O)cc1` [Example 2, [5-(aminomethyl)-2,6-diisobutyl-4-(4-methylphenyl)pyridin-3-yl]acetic acid dihydrochloride] gave an IC50 of 35 nM.
The same measure, in the same setting: the result for `CCc1nc(CC(C)(C)C)c(CN)c(-c2ccc(C)cc2)c1CC(=O)Nc1cccc(C(C)=O)c1` [Example 5, N-(3-acetylphenyl)-2-[5-(aminomethyl)-2-ethyl-4-(4-methylphenyl)-6-neopentylpyridin-3-yl]acetamide dihydrochloride] reads 5.1 nM; that for `CCc1nc(CC(C)(C)C)c(CN)c(-c2ccc(C)cc2)c1CC(=O)N1CCC[C@H]1C(N)=O` [Example 6, 1-{[5-(aminomethyl)-2-ethyl-4-(4-methylphenyl)-6-neopentylpyridin-3-yl]acetyl}-L-prolinamide], 2.7 nM.
`CCc1nc(CC(C)(C)C)c(CN)c(-c2ccc(C)cc2)c1CC(=O)Nc1cccc(S(C)(=O)=O)c1` [Example 7, 2-[5-(aminomethyl)-2-ethyl-4-(4-methylphenyl)-6-neopentylpyridin-3-yl]-N-[3-(methylsulfonyl)phenyl]acetamide dihydrochloride] came in with an IC50 of 51 nM.

The target in a further experiment is T1, dipeptidyl peptidase IV. Nature of the experiment: Determination of dipeptidyl peptidase IV inhibitory activity in rat plasma (Experimental Example 1). It is filed as biochemical. Conditions: plasma of SD rat, substrate Gly-Pro-p-NA, 30° C., absorbance 405 nm after 1 hr; Table 5. On the procedure: as §3, §1, §2
The dipeptidyl peptidase IV inhibitory activity of the test compound group is expressed in IC50 value (nM) and shown in Table 5.
`CCc1nc(CC(C)C)c(CN)c(-c2ccc(C)cc2)c1CC(=O)O` [Example 1, [5-(aminomethyl)-2-ethyl-6-isobutyl-4-(4-methylphenyl)pyridin-3-yl]acetic acid] came in with an IC50 of 33 nM.
Take `Cc1ccc(-c2c(CN)c(CC(C)C)nc(CC(C)C)c2CC(=O)N2CCC(S(C)(=O)=O)C2)cc1` (stereo not shown) [Example 10, [(2,6-diisobutyl-4-(4-methylphenyl)-5-{2-[3-(methylsulfonyl)pyrrolidin-1-yl]-2-oxoethyl}pyridin-3-yl)methyl]amine ditrifluoroacetate]: the half-inhibitory concentration (IC50) was determined as 0.85 nM.
Regarding `Cc1ccc(-c2c(CN)c(CC(C)C)nc(CC(C)C)c2CC(=O)N2C[C@@H](C)O[C@@H](C)C2)cc1` [Example 20], the IC50 amounted to 8.4 nM. This IC50 is about 9.9-fold higher than that of the compound before.
`Cc1ccc(-c2c(CN)c(CC(C)C)nc(CC(C)C)c2CC(=O)N2CCC[C@H]2C(N)=O)cc1` [Example 45] came in with an IC50 of 2 nM.
Still for that read-out and setting: the result for `CC(=O)N1CCN(C(=O)Cc2c(CC(C)C)nc(CC(C)C)c(CN)c2-c2ccc(C)cc2)CC1` [Example 47] reads 4.8 nM; that for `CCc1nc(CC(C)(C)C)c(CN)c(-c2ccc(C)cc2)c1CC(=O)N1C[C@@H](C)O[C@@H](C)C1` [Example 64], 1.7 nM; that for `CCc1nc(CC(C)(C)C)c(CN)c(-c2ccc(C)cc2)c1CC(=O)Nc1ccc(C(C)=O)cc1` [Example 80], 11 nM.
On the same count and under the same terms, the value for `CCc1nc(CC(C)(C)C)c(CN)c(-c2ccc(C)cc2)c1CC(=O)N1CCC[C@H]1C(N)=O` [Example 87] was 0.32 nM; that for `CCc1nc(CC(C)(C)C)c(CN)c(-c2ccc(C)cc2)c1CC(=O)N1CCN(C(C)=O)CC1` [Example 89] was 3.6 nM.
